Experimental data taken from patent US9133125B2, “Morphan and morphinan analogues, and methods of use” (priority 2013, dated 2015).

System: Male Sprague-Dawley rats
Experiment: Thermal pain assay (rodent hot plate model)
Assay type: in vivo
Details: rat, dose of 10 mg/kg, subcutaneous

SMILES	antinociceptive effect, hot plate
Cl.NC(=O)c1ccc2c(c1O)[C@]13CCN(CC4CCC4)[C@H](C2)[C@]1(O)CC[C@H](O)C3 [Compound C, (4bR,6S,8aS,9R)-11-(cyclobutylmethyl)-4,6,8a-trihydroxy-6,7,8,8a,9,10-hexahydro-5H-9,4b-(epiminoethano)phenanthrene-3-carboxamide]	no antinociceptive effect
Cl.NC(=O)c1ccc2c(c1O)[C@]13CCN(CC4CCC4)[C@H](C2)[C@]1(O)CC[C@@H](O)C3 [Compound D, (4bR,6R,8aS,9R)-11-(cyclobutylmethyl)-4,6,8a-trihydroxy-6,7,8,8a,9,10-hexahydro-5H-9,4b-(epiminoethano)phenanthrene-3-carboxamide]	no antinociceptive effect
